This passage reports IC50 results from publication PMC4763238, “Resveratrol induces autophagy by directly inhibiting mTOR through ATP competition” (Scientific Reports, 2016).

Each structure is given as a SMILES string.

The assay concerns the target T1, mTOR (Homo sapiens, UniProt P42345).
T1 construct: GST-tagged recombinant fragment mTOR, some regulatory domains deleted, intact kinase domain; also immunoprecipitated full-length HA-mTOR
Briefly: in vitro kinase assay (GST-S6K or 4E-BP1 phosphorylation), with ATP competition and a resistant mutant. The format is biochemical.

T1 sequence (P42345 1360-2549): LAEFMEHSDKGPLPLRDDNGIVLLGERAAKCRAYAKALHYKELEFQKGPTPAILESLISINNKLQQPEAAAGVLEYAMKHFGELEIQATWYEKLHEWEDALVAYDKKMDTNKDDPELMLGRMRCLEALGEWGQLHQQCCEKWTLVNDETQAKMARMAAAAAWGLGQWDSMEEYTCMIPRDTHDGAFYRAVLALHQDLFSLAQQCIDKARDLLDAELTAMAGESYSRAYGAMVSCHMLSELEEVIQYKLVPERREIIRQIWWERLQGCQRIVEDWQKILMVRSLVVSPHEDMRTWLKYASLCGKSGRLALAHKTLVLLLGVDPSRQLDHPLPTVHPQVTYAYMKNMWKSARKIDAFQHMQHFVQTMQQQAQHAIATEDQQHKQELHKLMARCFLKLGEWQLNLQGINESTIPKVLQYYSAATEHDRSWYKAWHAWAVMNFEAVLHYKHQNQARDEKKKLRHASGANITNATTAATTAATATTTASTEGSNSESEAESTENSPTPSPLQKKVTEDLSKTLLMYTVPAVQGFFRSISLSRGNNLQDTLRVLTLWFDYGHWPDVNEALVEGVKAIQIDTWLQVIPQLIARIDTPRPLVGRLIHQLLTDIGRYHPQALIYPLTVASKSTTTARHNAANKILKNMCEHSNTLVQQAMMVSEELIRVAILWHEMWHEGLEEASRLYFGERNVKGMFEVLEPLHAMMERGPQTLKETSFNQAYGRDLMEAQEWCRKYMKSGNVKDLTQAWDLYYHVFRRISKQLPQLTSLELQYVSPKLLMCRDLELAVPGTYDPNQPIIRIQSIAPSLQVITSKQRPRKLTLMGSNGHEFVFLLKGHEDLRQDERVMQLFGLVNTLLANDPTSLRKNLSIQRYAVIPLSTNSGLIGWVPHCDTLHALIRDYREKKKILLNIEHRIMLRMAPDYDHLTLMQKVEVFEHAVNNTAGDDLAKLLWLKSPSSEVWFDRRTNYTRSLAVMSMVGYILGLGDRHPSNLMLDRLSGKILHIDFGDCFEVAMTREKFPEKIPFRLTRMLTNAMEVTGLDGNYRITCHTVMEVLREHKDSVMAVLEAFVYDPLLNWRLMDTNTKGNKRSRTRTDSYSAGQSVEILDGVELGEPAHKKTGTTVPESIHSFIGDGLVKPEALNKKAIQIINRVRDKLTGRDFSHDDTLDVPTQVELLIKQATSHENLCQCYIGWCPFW

For the compound `Oc1ccc(/C=C/c2cc(O)cc(O)c2)cc1` [resveratrol, 3,40,5-trihydroxy-trans-stilbene], the IC50 (as a rule, the point on the concentration scale where inhibition reaches its midpoint) was approximately 10 µM.
